Legend:
HEK293 cell line = type: cell-based; conditions: HEK293 cell line, 48 h at 37°C, DMEM 10% FBS, AlamarBlue; mean ± SD, three independent experiments in triplicates
In short: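 HEK293 cells seeded at 2 × 10³/well, incubated 48 h at 37 °C with serially diluted compounds (stock 2 mg/mL) in DMEM with 10% FBS. AlamarBlue added at 10% final for 3–5 h; fluorescence ex 560/em 590 nm, normalized to untreated cells.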

P. aeruginosa PAO1 [1] = assay: PI cell permeabilization assay (flow cytometry); type: cell-based, Pseudomonas aeruginosa; conditions: PAO1 (OD600 = 1) incubated 20 min at 37°C, PI 5 µg/mL
Protocol: page 31: 12. Cell Membrane Permeability Assay Propidium iodide (PI) was used as the fluorescent dye to evaluate integrity of bacterial membranes. A single colony of Pseudomonas aeruginosa PAO1 was grown overnight with shaking (150 rpm) in LB-broth (5 mL) at 37 °C. 100 μL of the overnight culture was regrown in 10 mL LB-broth to the exponential phase OD600 1 (10^9 CFU/mL). Bacteria was washed with MH and then re-suspended to a working concentration of OD600 = 1. AMPDs and polymyxin B (stock solution 1 mg/mL) were added at different final concentrations ( 16, 32 and 64 μg/mL). Samples were incubated with shaking (150 rpm) at 37°C for 20 minutes before samples were centrifuged at 14 000 rpm for 3 min. Bacteria sample was washed twice with PBS and stained with PI 5 µg/mL in PBS with shaking (150 rpm) at 37°C for 20 minutes. Bacteria sample was washed 5 times with PBS and the fluorescence intensity of bacteria suspensions was observed and recorded on a ImageStream ® X Mark II Imaging Flow Cytometer with a 488 nm laser , bacteria cells wi th fluorescent intensity higher than 2 × 104 is defined as PI positive cells. Percentage of PI positive cells was calculated by IDEA S workstation . S30

P. aeruginosa PAO1 [2] = assay: DiSC3(5) inner membrane depolarization assay; type: cell-based, Pseudomonas aeruginosa; conditions: PAO1 in HEPES buffer pH 7.4, 2 μM DiSC3(5), up to 64 μg/mL, read within 5 min
Protocol: page 29: 11. DiSC3(5) Membrane Depolarization Assay A single colony of Pseudomonas aeruginosa PAO1 was grown overnight with shaking (150 rpm) in LB-broth (5 mL) at 37 °C. 100 μL of the overnight culture was regrown in 10 mL LB- broth with shaking (200 rpm) to the exponential phase OD 600 = 1 (10^9 CFU/mL). Bacteria were washed once with HEPES buffer (5 mM HEPES, 5 mM glucose, pH 7.4) and diluted to OD 600 = 0.4. Stock solution of 10 mM of DiSC3(5) was prepared in DMSO. Stock solutions of 1 mg/mL of the compounds were prepared in sterilized milli-Q water and diluted to the beginning concentration of 128 μg/mL in 200 μL HEPES buffer containing […] the fluorescent probe DiSC3(5) 4 μM. The diluted samples were added to the first well of 96-well plates (black wells, flat bottom, BRAND® GmbH Wertheim, Germany) and diluted serially by 1/2. 100 μL of the bacterial suspension in HEPES buffer (without DiSC3(5)) were added to each well. In this case, the final OD of bacteria was 0.2, the final concentration of peptide in the first column is 64 μg/mL and DiSC3(5) 2 μM. The control wells are buffer containing DiSC3(5) and bacterial suspension containing DiSC3(5) in HEPES buffer. The plate was measured with a Tecan instrument Infinite M1000 within 5 min. The plate was enabled to shake for 5 sec before measurement. […]

E. coli W3110 = conditions: broth microdilution, two independent experiments in duplicate
A. baumannii ATCC 19606 = conditions: broth microdilution, two independent experiments in duplicate
P. aeruginosa PAO1 [3] = conditions: broth microdilution, two independent experiments in duplicate
K. pneumoniae NCTC 418 = conditions: broth microdilution, two independent experiments in duplicate
[4] = test system: S aureus COL (methicillin-resistant Staphylococcus aureus); conditions: broth microdilution, two independent experiments in duplicate
S. maltophilia = conditions: MH medium pH 7.4, 16–20 h at 37°C; two independent experiments in duplicate
P. aeruginosa PA14 = conditions: MH medium pH 7.4, 16–20 h at 37°C; two independent experiments in duplicate
P. aeruginosa ZEM-1A = conditions: MDR clinical isolate; MH medium pH 7.4, 16–20 h at 37°C; two independent experiments in duplicate
E. cloacae = conditions: MH medium pH 7.4, 16–20 h at 37°C; two independent experiments in duplicate
K. pneumoniae OXA-48 = conditions: carbapenem-resistant strain; MH medium pH 7.4, 16–20 h at 37°C; two independent experiments in duplicate
P. aeruginosa ZEM9A = conditions: clinical isolate; MH medium pH 7.4, 16–20 h at 37°C; two independent experiments in duplicate
B. cenocepacia = conditions: MH medium pH 7.4, 16–20 h at 37°C; two independent experiments in duplicate
S. aureus Newman = conditions: MH medium pH 7.4, 16–20 h at 37°C; two independent experiments in duplicate
human red blood cells = assay: Hemolysis assay (MHC); conditions: Table 1; human red blood cells in PBS (pH 7.4), 4 h, visual inspection; two independent experiments in duplicate
[5] = Table 1, Müller-Hinton medium pH 7.4, 16–20 h at 37°C
[6] = Müller-Hinton medium pH 5.0, 16–20 h at 37°C
[7] = Müller-Hinton medium pH 8.0, 16–20 h at 37°C

Which “IC50 HEK293” value (HEK293 cell line) does the source give for polymyxin B [PMB, reference compound] here?
The value was 346 ± 20 µg/mL.

And the “Cell permeabilization (PI), percentage of PI-positive cells” value (shortened to “Cell permeabilization (PI), percentage”) (P. aeruginosa PAO1 [1]; 16 μg/mL)?
The value was 96%.

And the “Cell permeabilization (PI), percentage” value (P. aeruginosa PAO1 [1]; 32 μg/mL)?
The value was 94%.

What about the “Cell permeabilization (PI), percentage” value (P. aeruginosa PAO1 [1]; 64 μg/mL) of the same substance?
Its value is 96%.

What about the “Inner membrane depolarization (DiSC3(5) fluorescence), words” value (P. aeruginosa PAO1 [2]) of the same substance?
The value was “did not depolarize the inner membrane”.

And the “MIC at pH 7.4, E. coli W3110” value (E. coli W3110; [5])?
The value was 0.25 μg/mL.

What about the “MIC at pH 5.0, E. coli W3110” value (E. coli W3110; [6]) of the same substance?
Its value is 0.02 μg/mL.

And the “MIC at pH 8.0, E. coli W3110” value (E. coli W3110; [7])?
Its value is 0.13 μg/mL.

And the “MIC at pH 7.4, A. baumannii ATCC 19606” value (A. baumannii ATCC 19606; [5])?
Its value is 0.25 μg/mL.

And the “MIC at pH 5.0, A. baumannii ATCC 19606” value (A. baumannii ATCC 19606; [6])?
Its value is 1 μg/mL.

And the “MIC at pH 8.0, A. baumannii ATCC 19606” value (A. baumannii ATCC 19606; [7])?
The value was 0.25 μg/mL.

And the “MIC at pH 7.4, P. aeruginosa PAO1” value (P. aeruginosa PAO1 [3]; [5])?
Its value is 0.5 μg/mL.

And the “MIC at pH 5.0, P. aeruginosa PAO1” value (P. aeruginosa PAO1 [3]; [6])?
The value was 0.03 μg/mL.

What about the “MIC at pH 8.0, P. aeruginosa PAO1” value (P. aeruginosa PAO1 [3]; [7]) of the same substance?
The value was 0.5 μg/mL.

And the “MIC at pH 7.4, K. pneumoniae NCTC 418” value (K. pneumoniae NCTC 418; [5])?
The value was 0.25 μg/mL.

What about the “MIC at pH 5.0, K. pneumoniae NCTC 418” value (K. pneumoniae NCTC 418; [6]) of the same substance?
Its value is 8 μg/mL.

What about the “MIC at pH 8.0, K. pneumoniae NCTC 418” value (K. pneumoniae NCTC 418; [7]) of the same substance?
The value was 0.25 μg/mL.

What about the “MIC at pH 5.0, S aureus COL” value [4, 6] of the same substance?
The value was greater than 64 μg/mL.

What about the “MIC at pH 7.4, S aureus COL” value ([4]; Müller-Hinton medium pH 7.4, 16–20 h at 37°C) of the same substance?
The value was greater than 64 μg/mL.

And the “MIC at pH 8.0, S aureus COL” value [4, 7]?
The value was 4 μg/mL.

And the “MIC, S. maltophilia” value (S. maltophilia)?
Its value is 4 µg/mL.

And the “MIC, P. aeruginosa PA14” value (P. aeruginosa PA14)?
Its value is 0.5 µg/mL.

And the “MIC, P. aeruginosa ZEM-1A” value (P. aeruginosa ZEM-1A)?
The value was 0.5 µg/mL.

What about the “MIC, E. cloacae” value (E. cloacae) of the same substance?
The value was 0.5 µg/mL.

And the “MIC, K. pneumoniae OXA-48” value (K. pneumoniae OXA-48)?
The value was 1 µg/mL.

And the “MIC, P. aeruginosa ZEM9A” value (P. aeruginosa ZEM9A)?
The value was 64 µg/mL.

What about the “MIC, B. cenocepacia” value (B. cenocepacia) of the same substance?
The value was greater than 64 µg/mL.

What about the “MIC, S. aureus Newman” value (S. aureus Newman) of the same substance?
Its value is greater than 64 µg/mL.

What about the “MHC (minimum hemolytic concentration)” value (human red blood cells) of the same substance?
The value was >2,000 μg/mL.

— article PMC9780108, “An intrinsically disordered antimicrobial peptide dendrimer from stereorandomized virtual screening” (Cell Reports. Physical Science, 2022)
